Like-named read-outs stand apart in the source and are kept apart here.
Key:
[1] = Single intravenous administration exposure, pharmacokinetics (Test Example 4); format: in vivo, ICR mice; settings: ICR mice, single intravenous injection, plasma; for AUC(0-t) / AUC(0-inf) / Cmax / Tmax: mouse, in vivo; for AUC(0-t): read-out: AUC0-t; for AUC(0-inf): read-out: AUCinf; for Cmax: read-out: Cmax; for Tmax: read-out: Tmax
Procedure: The solutions were prepared on the day of administration and stored at 4° C.
Single intravenous injections were administered to ICR mice, which were grouped as follows. Blood was collected from the saphenous vein or the fundus venous plexus at 0.083 h, 0.25 h, 0.5 h, 1 h, 2 h, 4 h, 6 h and 12 h after administration (about 0.1 mL/time point). A biological analysis method was developed to determine plasma concentrations at different time points, and related pharmacokinetic parameters were calculated.

[2] = system: cefepime-resistant Klebsiella pneumoniae expressing different types of β-lactamases; experiment: microbe, parasite or virus in culture; format: cell-based; settings: for MIC: Klebsiella pneumoniae; for MIC, Cefepime + compound (8 ug/ml): inhibitor at 8 ug/ml
Procedure: (§1) The biosafety cabinet was sterilized with ultraviolet light for 30 min. Glycerol tubes were taken out of a −80° C. freezer, and streaks were gently formed in the glycerol tubes using inoculating loops. Bacteria were inoculated onto MHIIA solid plates. The plates were incubated overnight in a 37° C. incubator.
(§2) 30 μL of compound stock solution was added to column 1 of a 96-well v-bottom plate, and DMSO was added to columns 2-10. Subsequently, 15 μL was transferred from column 1 to column 2 using a pipette and well mixed gently, and then 15 μL of solution was transferred from column 2 to column 3: the serial dilution process proceeded to column 10 (200×β-lactamase inhibitor working solutions were prepared). The antibiotic was diluted with a corresponding solvent to form a 1.6 mg/mL solution.

[3] = system: cefepime-resistant Escherichia coli; experiment: MIC in combination with cefepime for drug-resistant bacteria (Test Example 2); format: cell-based; settings: for MIC: Escherichia coli, with CPM 8 μg/mL
Procedure: as §1
as §2, with “3;” for “3:”

[4] = system: cefepime-resistant Acinetobacter baumannii; experiment: as above; format: cell-based; settings: for concentration for achieving a bacteriostatic effect where the CPM MIC is fixed at 8 μg/mL: with CPM 8 μg/mL
Procedure: as §1
as §2, with “3;” for “3:”

[5] = system: cefepime-resistant Klebsiella pneumoniae; experiment: as above; format: cell-based; settings: for MIC: Klebsiella pneumoniae, with CPM 8 μg/mL
Procedure: as §1
as §2, with “3;” for “3:”

[6] = system: cefepime-resistant Pseudomonas aeruginosa; experiment: as above; format: cell-based
Procedure: as §1
as §2, with “3;” for “3:”

[7] = summary in words of Test Example 2

Q: What does the source list for `O=C([O-])c1c2c(cc3c1O[B-](O)(O)[C@@H]1C[C@H]31)OCCO2.[Na+].[Na+]` [Compound 1-1-Na]?
A: t½z ([1]; 10 mg/kg): 115 min; t½z ([1]; 100 mg/kg): 178 min; AUC(0-t) ([1]; 10 mg/kg): 211 µg·h/mL; AUC(0-inf) ([1]; 10 mg/kg): 213 µg·h/mL; Cmax ([1]; 10 mg/kg): 146 µg/mL; Tmax ([1]; 10 mg/kg): 4.98 min; AUC(0-t) ([1]; 100 mg/kg): 1400 µg·h/mL; AUC(0-inf) ([1]; 100 mg/kg): 1540 µg·h/mL; Cmax ([1]; 100 mg/kg): 607 µg/mL; Tmax ([1]; 100 mg/kg): 4.98 min; MIC ([2]; ATCCBAA1705, read-out: MIC, single substance (1-1-Na, QPX7728, CPM), strain ATCC BAA-1705, KPC-2, TEM, SHV, Class A): > 128 µg/mL; MIC ([2]; ATCCBAA1898, read-out: MIC, single substance (1-1-Na, QPX7728, CPM), strain ATCC BAA-1898, KPC-2, Class A): > 128 µg/mL; MIC ([2]; ATCCBAA1899, read-out: MIC, single substance (1-1-Na, QPX7728, CPM), strain ATCC BAA-1899, KPC-2, Class A): 64 µg/mL; MIC ([2]; ATCCBAA2343, read-out: MIC, single substance (1-1-Na, QPX7728, CPM), strain ATCC BAA-2343, KPC, Class A): > 128 µg/mL; MIC ([2]; ATCCBAA2470, read-out: MIC, single substance (1-1-Na, QPX7728, CPM), strain ATCC BAA-2470, NDM-1, Class B): 64 µg/mL; MIC ([2]; read-out: MIC, single substance (1-1-Na, QPX7728, CPM), strain ARLG-1127 (Urine), KPC, KPC-3, TEM, TEM-1, Class A): > 128 µg/mL; MIC ([2]; read-out: MIC, single substance (1-1-Na, QPX7728, CPM), strain ARLG-1195, CTM-1 group, SHV, NDM, Class A, B): > 128 µg/mL; MIC ([2]; read-out: MIC, single substance (1-1-Na, QPX7728, CPM), strain ARLG-1196, CTM-1 group, SHV, NDM, TEM, Class A, B): 128 µg/mL; MIC, Cefepime + compound (8 ug/ml) ([2]; strain ARLG-1127 (Urine), KPC, KPC-3, TEM, TEM-1, Class A): 0.25 µg/mL; MIC, Cefepime + compound (8 ug/ml) ([2]; strain ARLG-1195, CTM-1 group, SHV, NDM, Class A, B): ≤0.125 µg/mL; MIC, Cefepime + compound (8 ug/ml) ([2]; strain ARLG-1196, CTM-1 group, SHV, NDM, TEM, Class A, B): ≤0.125 µg/mL; MIC, Cefepime + compound (8 ug/ml) ([2]; strain ATCC BAA-1705, KPC-2, TEM, SHV, Class A): <0.125 µg/mL; MIC, Cefepime + compound (8 ug/ml) ([2]; strain ATCC BAA-1898, KPC-2, Class A): <0.125 µg/mL; MIC, Cefepime + compound (8 ug/ml) ([2]; strain ATCC BAA-1899, KPC-2, Class A): ≤0.125 µg/mL; MIC, Cefepime + compound (8 ug/ml) ([2]; strain ATCC BAA-2343, KPC, Class A): 0.25 µg/mL; MIC, Cefepime + compound (8 ug/ml) ([2]; strain ATCC BAA-2470, NDM-1, Class B): ≤0.125 µg/mL; MIC ([3]; read-out: concentration for achieving a bacteriostatic effect where the CPM MIC is fixed at 8 μg/mL, strain FDA-CDC AR-BANK#0055): 1 µg/mL; MIC ([3]; read-out: concentration for achieving a bacteriostatic effect where the CPM MIC is fixed at 8 μg/mL, strain FDA-CDC AR-BANK#0114): 0.0312 µg/mL; MIC ([3]; read-out: concentration for achieving a bacteriostatic effect where the CPM MIC is fixed at 8 μg/mL, strain FDA-CDC AR-BANK#0370): 1 µg/mL; MIC ([3]; read-out: concentration for achieving a bacteriostatic effect where the CPM MIC is fixed at 8 μg/mL, strain FDA-CDC AR-BANK#0371): ≤ 0.0156 µg/mL; restoring to cefepime antibacterial activity against cefepime-resistant Escherichia coli [3, 7]: significantly restore to cefepime antibacterial activity; MIC ([4]; Acinetobacter baumannii, read-out: concentration for achieving a bacteriostatic effect where the CPM MIC is fixed at 8 μg/mL): > 16 µg/mL; concentration for achieving a bacteriostatic effect where the CPM MIC is fixed at 8 μg/mL ([4]; strain FDA-CDC AR-BANK#0035): >16 µg/mL; concentration for achieving a bacteriostatic effect where the CPM MIC is fixed at 8 μg/mL ([4]; strain FDA-CDC AR-BANK#0078): >16 µg/mL; MIC ([5]; read-out: concentration for achieving a bacteriostatic effect where the CPM MIC is fixed at 8 μg/mL, strain FDA-CDC AR-BANK#0003): 0.125 µg/mL; MIC ([5]; read-out: concentration for achieving a bacteriostatic effect where the CPM MIC is fixed at 8 μg/mL, strain FDA-CDC AR-BANK#0076): 0.25 µg/mL; MIC ([5]; read-out: concentration for achieving a bacteriostatic effect where the CPM MIC is fixed at 8 μg/mL, strain FDA-CDC AR-BANK#0080): 2 µg/mL; MIC ([5]; read-out: concentration for achieving a bacteriostatic effect where the CPM MIC is fixed at 8 μg/mL, strain FDA-CDC AR-BANK#0126): ≤ 0.0156 µg/mL; MIC ([5]; read-out: concentration for achieving a bacteriostatic effect where the CPM MIC is fixed at 8 μg/mL, strain FDA-CDC AR-BANK#0158): 2 µg/mL; restoring to cefepime antibacterial activity against cefepime-resistant Klebsiella pneumoniae [5, 7]: significantly restore to cefepime antibacterial activity; MIC ([6]; read-out: concentration for achieving a bacteriostatic effect where the CPM MIC is fixed at 8 μg/mL, strain FDA-CDC AR-BANK#0246, with CPM 8 μg/mL): > 16 µg/mL; MIC ([6]; read-out: concentration for achieving a bacteriostatic effect where the CPM MIC is fixed at 8 μg/mL, strain FDA-CDC AR-BANK#0439, with CPM 8 μg/mL): > 16 µg/mL; MIC ([6]; read-out: concentration for achieving a bacteriostatic effect where the CPM MIC is fixed at 8 μg/mL, strain FDA-CDC AR-BANK#0441, with CPM 8 μg/mL): 8 µg/mL; MIC ([6]; read-out: concentration for achieving a bacteriostatic effect where the CPM MIC is fixed at 8 μg/mL, strain FDA-CDC AR-BANK#0444, with CPM 8 μg/mL): 16 µg/mL

— patent US20240209004A1, “BORIC ACID DERIVATIVE ACTING AS Beta-LACTAMASE INHIBITOR” (TUOJIE BIOTECH (SHANGHAI) CO., LTD., priority 2021, published 2024)
